# Patent US11718628B2, “SREBP inhibitors comprising a 6-membered central ring” (Capulus Therapeutics, LLC, priority 2018, dated 2023)
# What was measured:
# [1] = Half-life in mouse liver microsomes; type: in vitro ADME; conditions: mouse, liver microsomes, read-out: H: half-life of mouse liver microsomes
# Protocol: (§1) Half-life Human Microsomes: Compounds were evaluated for stability in human liver microsomes. A 10 mM stock solution of the compound being evaluated was prepared in DMSO and diluted with water:acetonitrile (1:1) to a concentration of 1 mM. A working concentration of 100 μM was prepared by further dilution with water:acetonitrile (1:1). To make the preincubation mixture, 2.5 μL of the diluted compound was combined with 75 μL of human liver microsomes at 3.33 mg/mL, and 85 μL of 100 mM potassium phosphate buffer, and this mixture was pre-incubated for 10 min at 37° C. To make the 60 minute mixture without cofactor, 32.5 μL of the preincubation mixture was combined with 17.5 μL of 100 mM potassium phosphate buffer and incubated for 60 min at 37° C. To make the 0 min sample with cofactor (NADPH), 16.25 μL of the preincubation mixture was combined with 200 μL of acetonitrile containing internal standard and 8.75 μL of cofactor (NADPH). To make the incubation mixture, 62 μL of cofactor (2.85 mM) was combined with the remaining incubation mixture, and incubated for 60 min at 37° C. To prepare the sample mixture to be evaluated, 25 μL incubation mixture was combined with 200 μL of acetonitrile containing internal standard and vortexed for 5 min at 1200 rpm, then centrifuged for 10 min at 4000 rpm. The supernatant was diluted 2 fold with water and injected on LC-MS/MS. The sample mixture was evaluated by LC-MS/MS using 10 mM ammonium acetate with 0.1% FA as the aqueous mobile phase, and methanol as the organic mobile phase.
# Half-life Mouse Microsomes: Compounds were evaluated in mouse liver microsomes following a similar procedure as described above for human liver microsomes. A similar procedure could be used to evaluate compounds in rat liver microsomes.
# [2] = Half-life in human liver microsomes; type: in vitro ADME; conditions: human, liver microsomes, NADPH, 37° C., read-out: G: half-life human liver microsomes
# Protocol: as §1
# Kinetic solubility = type: physicochemical; conditions: aqueous buffer, kinetic from dmso stock, pH 7.4 buffer, room temperature, 1.0% DMSO, read-out: I: kinetic solubility class
# Protocol: Kinetic Solubility Procedure: A 10 mM stock solution of a compound was prepared in DMSO, then 4 μL of the stock was added to a deep well plate containing 396 μL of pH 7.4 buffer. The sample plate was vortexed at 800 rpm for 24 h on thermomixer at room temperature. The plate was sealed well during the incubation process. The DMSO content in the sample was 1.0%. The concentration of the evaluated compound in the final incubation was 100 μM. At the end of the incubation period, the sample plate was centrifuged at 4000 rpm for 10 min and analyzed in LC-UV against a calibration curve (CC). Values <10 μg/mL=Low; 10 to 60 μg/mL=Medium; >60 μg/mL=High.
half-life at 1 µM [1] [min],half-life at 1 µM [2] [min],solubility kinetic at 24 h (Kinetic solubility) [µg/mL],Structure (SMILES)
178,27.3,10 to 60,CC(C)NS(=O)(=O)Nc1ccc(-c2cncc(-c3ccnc(C(C)(C)C)c3)c2)c(Cl)c1
9.75,2.98,10 to 60,CC(C)(CNC(=O)c1ccc(-c2cncc(-c3ccnc(C(C)(C)C)c3)c2)c(Cl)c1)C(=O)O
31.5,5.01,10 to 60,CC(C)(C)c1cc(-c2cncc(-c3ccc(C(=O)N4CC[C@@H](O)C4)cc3Cl)c2)ccn1
39.8,6.72,10 to 60,CC1(O)CN(C(=O)c2ccc(-c3cncc(-c4ccnc(C(C)(C)C)c4)c3)c(Cl)c2)C1
11,11,< 10,CC(C)(C)c1cc(-c2cncc(-c3ccc(C(=O)N4CCC(F)CC4)cc3Cl)c2)ccn1
20,3.17,10 to 60,CC(C)(C)c1cc(-c2cncc(-c3ccc(C(=O)N4CC5C(O)C5C4)cc3Cl)c2)ccn1 (stereo not drawn)
> 120,6.03,< 10,CC(C)(C)c1cc(-c2cncc(-c3ccc(NS(=O)(=O)CC(F)(F)F)cc3Cl)c2)ccn1
> 120,6.5,< 10,CC(C)(CO)c1cc(-c2cncc(-c3ccc(NS(C)(=O)=O)cc3Cl)c2)ccn1
87.8,21.5,< 10,CC(C)OC(=O)Nc1ccc(-c2cncc(-c3ccnc(C(C)(C)CO)c3)c2)c(Cl)c1
21.3,15.4,< 10,CC(C)(C)c1cc(-c2cncc(-c3ccc(C(=O)N4CC5CCC(C4)C5O)cc3Cl)c2)ccn1 (stereo not drawn)
75.6,29.4,10 to 60,CC(C)(C)c1cc(-c2cncc(-c3ccc(C(=O)N4CC(O)C(O)C4)cc3Cl)c2)ccn1 (stereo not drawn)
36.2,27.1,10 to 60,CC(C)(C)c1cc(-c2cncc(-c3ccc(C(=O)N4C[C@@H](O)[C@@H](O)C4)cc3Cl)c2)ccn1
26.5,1.74,10 to 60,CC(C)(C)c1cc(-c2cncc(-c3ccc(C(=O)N4CC(CO)C4)cc3Cl)c2)ccn1
38.3,2.01,10 to 60,CC(C)(C)c1cc(-c2cncc(-c3ccc(C(=O)N4CC(O)C4)cc3Cl)c2)ccn1

# The remaining lines, values behind:
Structure (SMILES),half-life at 1 µM [1] [min],half-life at 1 µM [2] [min],solubility kinetic at 24 h (Kinetic solubility) [µg/mL]
CC(C)(C)c1cc(-c2cncc(-c3cc(C(=O)N4CCC(O)CC4)ccc3Cl)c2)ccn1,1860,2.62,10 to 60
Cc1cc(S(=O)(=O)NC(C)C)ccc1-c1cncc(-c2ccnc(C(C)(C)C)c2)c1,177,1.69,10 to 60
Cc1c(-c2ccnc(C(C)(C)C)c2)cncc1-c1ccc(C(=O)N2CCCC(O)C2)cc1Cl (stereo not drawn),25.5,11.3,< 10
CC(C)(C)c1cc(-c2cc(-c3ccc(C(=O)N4CCC(O)CC4)cc3Cl)cc3cnccc23)ccn1,33.8,11.4,10 to 60
CC(C)(C)c1cc(-c2cc(-c3ccc(C(=O)N4CCC(O)CC4)cc3Cl)c3ccncc3c2)ccn1,108,119,10 to 60
CC(C)(C)c1cc(-c2cncc(-c3ccc(NC(=O)OC4CCNCC4)cc3Cl)c2)ccn1,1090,1.78,< 10
CC1(c2cc(-c3cncc(-c4ccc(C(=O)N5CCC(O)CC5)cc4Cl)c3)ccn2)OCCO1,101,9.74,10 to 60
CC(C)(C)c1cc(-c2cc(-c3ccc(C(=O)N4CCC(O)CC4)cc3Cl)cc3ncccc23)ccn1,10.2,19,< 10
CC(C)(C)c1cc(-c2cc(-c3ccc(C(=O)N4CCC(O)CC4)cc3Cl)c3cccnc3c2)ccn1,19.3,2.07,< 10
Cc1c(-c2ccnc(C(C)(C)C)c2)cncc1-c1ccc(C(=O)N2CCC(O)CC2)cc1Cl,19.5,3.21,10 to 60
CN(C)c1cc(-c2ccnc(C(C)(C)C)c2)cc(-c2ccc(C(=O)N3CCC(O)CC3)cc2Cl)c1,13.6,20.7,< 10
CC(C)(C)c1cc(-c2cc(C#N)cc(-c3ccc(C(=O)N4CCC(O)CC4)cc3Cl)c2)ccn1,119,16.1,< 10
CC(C)(C)c1cc(-c2cc(F)cc(-c3ccc(C(=O)N4CCC(O)CC4)cc3Cl)c2)ccn1,13.6,74.6,< 10
CC(C)(C)c1cc(-c2cncc(-c3ccc(NC(=O)N4CCC(O)CC4)cc3Cl)c2)ccn1,> 120,19.6,< 10
O=C(c1ccc(-c2cncc(-c3ccnc(C4CC4)c3)c2)c(Cl)c1)N1CCC(O)CC1,54.9,36.5,10 to 60
CC1(O)CCC(C(=O)c2ccc(-c3cncc(-c4ccnc(C(C)(C)CO)c4)c3)c(Cl)c2)CC1 (stereo not drawn),63.6,10,10 to 60
CC(C)(C)c1cc(-c2cccc(-c3ccc(NS(=O)(=O)C(F)(F)F)cc3Cl)c2F)ccn1,81.3,0.54,10 to 60
CC(C)(C)c1cc(-c2cccc(-c3ccc(NS(C)(=O)=O)cc3Cl)c2)ccn1,110,90.8,< 10
CC(C)(C)c1cc(-c2cccc(-c3ccc(NS(C)(=O)=O)cc3Cl)c2F)ccn1,206,16.4,< 10
CC(C)(C)c1cc(-c2cccc(-c3ccc(C(=O)N4CCC(O)CC4)cc3Cl)c2F)ccn1,40.3,16.3,< 10
CC(C)(C)c1cc(-c2cccc(-c3ccc(C(=O)NS(=O)(=O)C4CC4)cc3Cl)c2)ccn1,66.7,12.1,10 to 60
CC(C)(C)c1cc(-c2cccc(-c3ccc(NS(=O)(=O)CC(F)(F)F)cc3Cl)c2)ccn1,> 120,> 120,< 10
CC(C)(C)c1cc(-c2cccc(-c3ccc(NC(=O)N4CCC(O)CC4)cc3Cl)c2)ccn1,400,72.1,< 10
